Assay results from US20120329761A1, “USE OF TIGECYCLINE FOR TREATMENT OF CANCER” (UNIVERSITY HEALTH NETWORK, priority 2010, published 2012).

Key:
Complex I, II and IV = test: Respiratory chain complex enzyme activity relative to citrate synthase; type: cell-based, human; conditions: TEX cells, 2.5 μM and 5 μM, 72 hours
Procedure: FIG. 4. Tigecycline decreases mitochondrial Cox-1 protein levels in TEX cells. (A) Cells from TEX, OCI-AML2 and two primary AML patients were treated with increasing concentrations (2.5 μM and 5 μM) of tigecycline for 36 and 48 hours of tigecycline. Total proteins were extracted and analyzed by western blotting for Cox-1, Cox-2, Cox-4, grp78, XIAP, actin and tubulin. (B) TEX and AML patient cells were treated with increasing concentrations (2.5 μM and 5 μM) of tigecycline. Cox-1, Cox-2, and Cox-4 mRNA expression relative 18S was determined by quantitative RT-PCR. Data is shown as mean±SD. (C) TEX cells were treated with increasing concentrations of tigecycline and chloramphenicol (CAP) for 72 hours. Complex I, II and IV enzyme activity relative to citrate synthase activity was determined as described in materials and methods. (D) Cells from TEX, primary AML patients, and normal donors were treated with increasing concentrations of tigecycline. Mitochondrial membrane potential (Δψ) was determined by staining cells with JC-1 dye, and flow cytometry analysis (Red/Green ratio). Reactive oxygen species generation (ROS) was determined by staining with h2-DCFDA and Dihydroethidium (DHE).
The effect of tigecycline treatment on enzyme activity of the respiratory chain complexes relative to the mitochondrial non-respiratory chain enzyme citrate synthase was examined. TEX leukemia cells were treated with tigecycline for […] and then respiratory chain enzyme relative to citrate synthase activity was analyzed. Equivalent tigecycline concentrations (2.5 μM and 5 μM) decreased enzyme activities of Complexes I and IV relative to citrate synthase, while complex II activity was less affected (FIG. 4C).

TEX cells = test: Apoptosis by Annexin V flow cytometry; type: cell-based, human; conditions: over time
Procedure: FIG. 1. […] (A) TEX and (B) M9-ENL1 cells were plated in 96-well plates and drugs were added to the wells (5 μL per well) for final concentrations of 10 μM (shown) and 1 μM. Cell growth and viability was measured at 48 hours (M9-ENL-1) and 72 hours (TEX) by MTS assay. Cell viability is shown for each compound as a percent of cells treated with DMSO alone. (C) Leukemia, (D) myeloma, and (E) solid tumor cell lines were seeded in 96-well plates and then treated with increasing concentrations of tigecycline. Cell growth and viability was measured at 72 hours by MTS assay. Cell viability is expressed as mean percentage plus or minus SD (n=3) relative to vehicle-treated cells. […] Cell viability was measured at 72 hours by MTS assay. Cell viability is expressed as mean percentage plus or minus SD (n=3) relative to vehicle-treated cells.
Cell growth and viability was assessed by the MTS assay (Promega, Madison, Wis.) according to the manufacturer's instructions. Apoptosis and cell death was measured by Annexin V-fluoroscein isothiocyanate (FITC; Biovision Research Products, Mountain View, Calif.), propidium iodide staining and flow cytometry according to the manufacturer's instructions and as previously described^30.

[1] = test system: OCI-AML2 human leukemia cells; type: in vivo, SCID mice
Procedure: FIG. 3. Tigecycline has anti-leukemia activity in vivo. (A, B) Human leukemia (OCI-AML2) were injected subcutaneously into the flank of SCID mice. Seven days after injection, once tumors were palpable, mice were treated with tigecycline (50 mg/kg or 100 mg/kg twice daily by i.p. injection) or vehicle control (n=10 per group). Fourteen days after injection of cells, mice were sacrificed, tumors excised and the volume and mass of the tumors were measured. The tumor mass and the mean volume+SD are shown. Differences in tumor volume and mass were analyzed by an unpaired t-test: * p<0.001. (C) Tumours from two control mice, and three tigecycline-treated mice were excised after 5 days of treatment and total proteins were extracted and analyzed by western blotting for Cox-1, Cox-2, Cox-4, and tubulin. (D) Primary cells from three AML patients were injected intra-femorally into the right femur of female sub-lethally irradiated NOD/SCID mice. Three weeks after injection mice were treated with tigecycline (100 mg/kg by i.p. injection daily) or vehicle control (n=10 per group) for three weeks. Following treatment, human leukemia cell engraftment in the injected right femur was measured by FACS analysis for human CD45^+CD19^−CD33^+ cells. Data represent mean±SD of engrafted human cells. Cells from one patient experiment were used to assess secondary engraftment in a second generation of NOD/SCID mice. Equal numbers of viable leukemia cells from bone marrow of control and tigecycline treated mice were injected into irradiated NOD/SCID mice, which were not treated with tigecycline. Six weeks later, human leukemia cell engraftment in the injected right femur was measured by FACS analysis for human CD45^+CD19^−CD33^+ cells. (* p<0.005, Student's t-test).
OCI-AML2 human leukemia cells (1×10^6) were injected subcutaneously into the flanks of SCID mice (Ontario Cancer Institute, Toronto, ON). Seven days after injection, once tumours were palpable, mice were treated with tigecycline twice daily (50 mg/kg or 100 mg/kg by i.p. injection) or vehicle control (n=10 per group) for 14 days. Tumor volume (tumor length×width^2×0.5236) was measured three times a week using calipers. Twenty-one days after injection of cells, mice were sacrificed, tumors excised and the volume and mass of the tumors were measured.
Given the effects of tigecycline as a potential anti-leukemia agent, tigecycline in mouse models of leukemia was evaluated. To evaluate the anti-tumor efficacy of tigecycline in vivo, human OCI-AML2 leukemia cells were injected into the flank of SCID mice. […] Tumor volume and mass were measured over time (FIGS. 3A, B). […]

[2] = 50 mg/kg or 100 mg/kg twice daily i.p. for 14 days, p<0.001

CN(C)c1cc(NC(=O)CNC(C)(C)C)c(O)c2c1C[C@H]1C[C@H]3[C@H](N(C)C)C(O)=C(C(N)=O)C(=O)[C@@]3(O)C(O)=C1C2=O [tigecycline]
Complex I enzyme activity relative to citrate synthase (Complex I, II and IV): decreased
Complex II enzyme activity relative to citrate synthase (Complex I, II and IV): less affected
Complex IV enzyme activity relative to citrate synthase (Complex I, II and IV): decreased
apoptosis, percentage of cells labeled by Annexin V (TEX cells): time-dependent increases in apoptosis
expression of cytochrome C oxidase subunits in tumours ([1]; 50 mg/kg bid for 5 days, western blotting): preferential decreased expression of mitochondrially translated subunits Cox-1 and Cox-2
decrease in tumor mass vs vehicle control [1, 2]: up to 70%
decrease in tumor volume vs vehicle control [1, 2]: up to 70%
toxicity in xenograft mice ([1]; mouse, in vivo): No evidence of toxicity
